Assay results published in ChEMBL document CHEMBL1201862, “PubChem BioAssay data set” (2004).
Active and inactive are the calls of the source.

System: not listed separately
Test: Luminescence Cell-Based Dose Response HTS to Identify Inhibitors of 5'UTR Stem-Loop Driven Prion Protein mRNA Translation in H4 Neuroglioblastoma Cells. [Related pubchem assays: 1827 (Project Summary), 1813 (Primary HTS)]
Type: functional
Details: not given
With `O=C(NC1CCN(Cc2ccccc2)CC1)c1cc(Br)c(Br)[nH]1` the EC50 was > 120 µM (not active).
In the case of `COc1ccccc1NS(=O)(=O)c1cccc(C(=O)N/N=C/c2cn(-c3ccccc3)nc2-c2ccccc2)c1`, the EC50 is reported as > 120 µM (not active).

Molecular target: T1, Protein skinhead-1 (Caenorhabditis elegans, UniProt P34707)
T1 sequence (P34707 whole entry): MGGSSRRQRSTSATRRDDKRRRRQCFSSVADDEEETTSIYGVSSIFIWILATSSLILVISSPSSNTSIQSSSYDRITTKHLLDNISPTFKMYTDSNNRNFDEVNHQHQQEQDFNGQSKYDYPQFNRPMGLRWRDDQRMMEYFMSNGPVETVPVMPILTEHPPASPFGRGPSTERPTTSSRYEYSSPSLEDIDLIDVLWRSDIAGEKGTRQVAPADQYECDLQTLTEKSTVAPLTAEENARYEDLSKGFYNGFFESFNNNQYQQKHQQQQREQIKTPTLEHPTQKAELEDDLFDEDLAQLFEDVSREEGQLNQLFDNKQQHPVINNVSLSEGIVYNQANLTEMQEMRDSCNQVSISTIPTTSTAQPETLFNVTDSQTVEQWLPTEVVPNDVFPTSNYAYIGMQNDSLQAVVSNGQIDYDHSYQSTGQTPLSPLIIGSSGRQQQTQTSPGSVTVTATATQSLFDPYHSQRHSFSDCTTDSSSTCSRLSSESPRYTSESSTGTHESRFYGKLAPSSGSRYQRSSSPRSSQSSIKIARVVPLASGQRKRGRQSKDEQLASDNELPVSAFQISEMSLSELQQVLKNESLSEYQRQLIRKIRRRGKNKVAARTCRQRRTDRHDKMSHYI
Type: functional
Details: not given
For `O=C(Nc1ccc(OC(F)F)c(Cl)c1)c1cccc(OC(F)F)c1`, the IC50 was 48.3 µM (active).
For `Clc1ccc2nc(N3CCCCC3)sc2c1`, the IC50 was 29.2 µM (active).
For `Cc1ccccc1NC(=O)Cc1nc(COC(=O)c2cccc(O)c2)cs1`, the IC50 was > 100 µM (inactive).
For `OCc1cccc(-c2csc(C(O)(c3ccccc3)C(F)(F)F)n2)c1` (stereo not drawn), the IC50 was > 100 µM (inactive).
For `COCCNC(=O)CC(c1ccccc1)c1ccccc1`, the IC50 was > 100 µM (inactive).
In the case of `c1ccc(-c2csc(N3CCN(c4ccccn4)CC3)n2)cc1`, the IC50 is reported as 26.5 µM (active).
With `Clc1ccccc1-c1nnc(-c2ccccc2Cl)o1` the IC50 was 53.8 µM (inactive).
With `O=C(Nc1ccc(N2CCCCC2)cc1)c1ccc2ccccc2n1` the IC50 was > 100 µM (inactive).
In the case of `Clc1cccc(CSc2ncn(-c3ccccc3)n2)c1`, the IC50 is reported as 24.7 µM (active).
With `O=C(Nc1ccc2c(c1)Cc1ccccc1-2)c1ccco1` the IC50 was > 100 µM (inactive).
With `O=C(COC(=O)C12CC3CC(CC(O)(C3)C1)C2)Nc1cccc(Br)c1` the IC50 was > 100 µM (inactive).
With `CCOC(=O)c1ccc(Nc2nnc(C(C)(C)C)c(O)n2)cc1` the IC50 was > 100 µM (inactive).

System: INS1
Test: INS-1E survival protection against cytokine death – cell-based, luminescence, retest, dose response (AID 449756);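 further: cell death triggered by IL-1 beta plus TNF-alpha plus IFN-gamma mixture; protective hits raise ATP signal compared with cytokine alone wells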
Type: functional
Details: Rattus norvegicus, INS1
With `CCC(C)Sc1ccc(-c2nc3ccc(C)cn3c2NCc2ccccc2)cc1OC` (stereo not drawn) the AC50 was 6.7 µM (active).
For `CCOc1ccc(-n2c(=O)[nH]cc(C(=O)Nc3ccc(OC)c(OC)c3)c2=O)cc1`, the AC50 was > 260 µM (inactive).
With `COc1ccccc1NC(=O)Cn1cc(C(=O)c2ccco2)c2ccccc21` the AC50 was 9.44 µM (active).
For `O=C1CSC(c2ccccc2F)N1` (stereo not drawn), the AC50 was > 260 µM (inactive).

Molecular target: Cytochrome P450 2D6 (Homo sapiens, UniProt P10635);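 further: CYP2D6 member of a cytochrome P450 panel assay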
Sequence (P10635 whole entry): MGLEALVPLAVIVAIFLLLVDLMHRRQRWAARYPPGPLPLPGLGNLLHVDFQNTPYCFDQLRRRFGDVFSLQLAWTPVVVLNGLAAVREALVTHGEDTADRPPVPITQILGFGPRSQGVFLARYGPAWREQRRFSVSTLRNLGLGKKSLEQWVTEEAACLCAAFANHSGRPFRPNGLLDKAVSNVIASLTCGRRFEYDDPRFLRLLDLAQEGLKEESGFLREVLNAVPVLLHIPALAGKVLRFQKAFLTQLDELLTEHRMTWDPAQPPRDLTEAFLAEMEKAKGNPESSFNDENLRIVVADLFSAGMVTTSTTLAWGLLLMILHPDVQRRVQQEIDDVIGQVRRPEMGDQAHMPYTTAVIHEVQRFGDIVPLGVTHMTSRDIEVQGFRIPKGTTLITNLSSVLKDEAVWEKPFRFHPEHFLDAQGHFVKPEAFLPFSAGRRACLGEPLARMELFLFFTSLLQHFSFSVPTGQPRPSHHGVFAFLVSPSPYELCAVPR
Details: not given
In the case of `Cc1nc2cnc(N(C)C)nc2n(Cc2cccs2)c1=O`, the AC50 is reported as 12.6 µM (inconclusive).
For `CC1CCN(C(=O)c2ccc(COc3ccccc3Cl)o2)CC1`, the AC50 was 28.2 µM (inconclusive).

System: not listed separately
Test: NIH3T3 cell viability loss – ATP luminescence, mouse fibroblasts, counter-screen, dose response (AID 2010);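 further: cells exposed to compound for about 90 hours before reading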
Type: functional, cell-based
Details: not given
For `O=C(NC1CCN(Cc2ccccc2)CC1)c1cc(Br)c(Br)[nH]1`, the EC50 was > 60 µM (not active).

System: not listed separately
Test: Trypanosoma cruzi growth suppression in host cells – NIH3T3 host cells, beta-gal luminescence, confirmation (AID 2044);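 further: intracellular parasites grown in NIH/3T3 mouse fibroblasts as host cells; luminescent beta-galactosidase reporter signal from transgenic T. cruzi replicating inside host cells; inhibitors lower the luminescence signal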
Type: functional, cell-based
Details: not given
In the case of `O=C(NC1CCN(Cc2ccccc2)CC1)c1cc(Br)c(Br)[nH]1`, the EC50 is reported as 0.539 µM (active).

System: not listed separately
Test: luciferase reporter signal suppression in cells – H4 neuroglioma cells, luminescence, dose response (AID 1990)
Type: functional, cell-based
Details: not given
In the case of `O=C(NC1CCN(Cc2ccccc2)CC1)c1cc(Br)c(Br)[nH]1`, the EC50 is reported as > 120 µM (not active).
In the case of `COc1ccccc1NS(=O)(=O)c1cccc(C(=O)N/N=C/c2cn(-c3ccccc3)nc2-c2ccccc2)c1`, the EC50 is reported as > 120 µM (not active).

Molecular target: Cytochrome P450 3A4 (Homo sapiens, UniProt P08684);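 further: CYP3A4 tested as one member of a cytochrome P450 panel screen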
Sequence (P08684 whole entry): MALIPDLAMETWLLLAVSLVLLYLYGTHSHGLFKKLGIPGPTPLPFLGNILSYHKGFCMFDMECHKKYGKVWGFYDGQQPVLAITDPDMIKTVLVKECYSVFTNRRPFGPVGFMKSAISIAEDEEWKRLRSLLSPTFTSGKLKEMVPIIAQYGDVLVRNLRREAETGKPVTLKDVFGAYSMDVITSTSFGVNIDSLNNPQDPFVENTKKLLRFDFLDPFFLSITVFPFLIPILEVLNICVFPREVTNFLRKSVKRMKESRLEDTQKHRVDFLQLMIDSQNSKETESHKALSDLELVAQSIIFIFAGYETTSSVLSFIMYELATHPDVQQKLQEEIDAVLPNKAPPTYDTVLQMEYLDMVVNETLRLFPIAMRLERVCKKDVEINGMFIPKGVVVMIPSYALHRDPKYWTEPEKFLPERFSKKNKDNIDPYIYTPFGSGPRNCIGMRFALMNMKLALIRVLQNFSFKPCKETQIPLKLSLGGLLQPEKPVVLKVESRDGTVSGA
Details: not given
For `Cc1nc2cnc(N(C)C)nc2n(Cc2cccs2)c1=O`, the AC50 was 3.16 µM (inconclusive).
With `CC1CCN(C(=O)c2ccc(COc3ccccc3Cl)o2)CC1` the AC50 was 31.6 µM (inconclusive).

System: not listed separately
Test: alpha-synuclein stem-loop luciferase translation blockers – H4 neuroglioma cells, luminescence, confirmation (AID 1988)
Type: functional, cell-based
Details: not given
For `O=C(NC1CCN(Cc2ccccc2)CC1)c1cc(Br)c(Br)[nH]1`, the EC50 was > 120 µM (not active).
With `COc1ccccc1NS(=O)(=O)c1cccc(C(=O)N/N=C/c2cn(-c3ccccc3)nc2-c2ccccc2)c1` the EC50 was > 120 µM (not active).
